# pIC50: −log10 of the molar value.
# Target: T1, JAK3 (Homo sapiens, UniProt P52333)
# T1 sequence (P52333 1-1124): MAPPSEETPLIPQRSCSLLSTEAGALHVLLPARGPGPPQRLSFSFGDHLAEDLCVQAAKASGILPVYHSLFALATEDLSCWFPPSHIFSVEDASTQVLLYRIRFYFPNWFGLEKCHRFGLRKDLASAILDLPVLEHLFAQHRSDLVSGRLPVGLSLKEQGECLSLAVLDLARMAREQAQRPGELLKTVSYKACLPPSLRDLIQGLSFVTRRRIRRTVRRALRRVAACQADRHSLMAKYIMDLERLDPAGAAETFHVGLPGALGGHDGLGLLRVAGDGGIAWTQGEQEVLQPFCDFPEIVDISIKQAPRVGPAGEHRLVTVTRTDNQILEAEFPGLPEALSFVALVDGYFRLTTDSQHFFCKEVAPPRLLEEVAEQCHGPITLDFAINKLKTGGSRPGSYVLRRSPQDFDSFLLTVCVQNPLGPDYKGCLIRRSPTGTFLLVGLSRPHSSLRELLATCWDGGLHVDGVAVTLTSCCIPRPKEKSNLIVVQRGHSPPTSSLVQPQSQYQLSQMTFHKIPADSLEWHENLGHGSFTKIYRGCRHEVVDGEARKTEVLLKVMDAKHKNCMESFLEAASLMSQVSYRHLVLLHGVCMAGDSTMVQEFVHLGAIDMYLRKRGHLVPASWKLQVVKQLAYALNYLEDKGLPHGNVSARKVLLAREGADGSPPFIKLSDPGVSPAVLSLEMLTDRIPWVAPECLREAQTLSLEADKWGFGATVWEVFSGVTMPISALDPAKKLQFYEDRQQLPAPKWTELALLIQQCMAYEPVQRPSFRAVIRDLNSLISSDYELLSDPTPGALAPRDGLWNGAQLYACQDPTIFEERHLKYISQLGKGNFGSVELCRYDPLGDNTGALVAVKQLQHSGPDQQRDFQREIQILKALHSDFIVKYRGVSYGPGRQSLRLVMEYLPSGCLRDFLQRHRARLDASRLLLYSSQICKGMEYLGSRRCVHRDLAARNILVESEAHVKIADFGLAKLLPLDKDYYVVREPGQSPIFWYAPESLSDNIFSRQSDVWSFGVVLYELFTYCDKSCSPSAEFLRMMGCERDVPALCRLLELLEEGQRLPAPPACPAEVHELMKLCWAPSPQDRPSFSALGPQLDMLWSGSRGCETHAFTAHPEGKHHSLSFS
# Test: JAK Caliper Enzyme Assay at 1 mM ATP (JAK3)
# Type: biochemical
# Method: JAK Caliper Enzyme Assay at 1 mM ATP
# Test article was solubilized in dimethyl sulfoxide (DMSO) to a stock concentration of 30 mM. An 11-point half log dilution series was created in DMSO with a top concentration of 600 μM. […] The compound plates were diluted 1 to 60 resulting in a top final assay compound concentration of 10 μM and a 2% DMSO concentration. Test article and assay controls were added to a 384-well plate. Reaction mixtures contained 20 mM HEPES, pH 7.4, 10 mM magnesium chloride, 0.01% bovine serum albumin (BSA), 0.0005% Tween 20, 1 mM ATP and 1 μM peptide substrate. […] The assays were initiated by the addition of 20 nM JAK1, 1 nM JAK2, 1 nM JAK3 or 1 nM TYK2 enzyme and were incubated at room temperature for three hours for JAK1, 60 minutes for JAK2, 75 minutes for JAK3 or 135 minutes for TYK2. Enzyme concentrations and incubation times were optimized for each new enzyme preps and were modified slightly over time to ensure 20%-30% phosphorylation. The assays were stopped with a final concentration of 10 mM EDTA, 0.1% Coating Reagent and 100 mM HEPES, pH=7.4. The assay plates were placed on a Caliper Life Science Lab Chip 3000 (LC3000) instrument, and each well was sampled using appropriate separation conditions to measure the unphosphorylated and phosphorylated peptide.
row,SMILES,pIC50
1,"C[C@H](O)CS(=O)(=O)N[C@H]1C[C@@H](N(C)c2ncnc3[nH]ccc23)C1 (single isomer, unassigned) [IA (M2)]",< 5.00
2,"C[C@@H](O)CS(=O)(=O)N[C@H]1C[C@@H](N(C)c2ncnc3[nH]ccc23)C1 (single isomer, unassigned) [IC (M3)]",< 5.00
3,"CN(c1ncnc2[nH]ccc12)[C@H]1C[C@@H](NS(=O)(=O)CCCO)C1 [IB (M1), 3-Hydroxy-N-(cis-3-(methyl(7H-pyrrolo[2,3-d]pyrimidin-4-yl)amino)cyclobutyl)propane-1-sulfonamide]",< 5.00
